Data taken from US10973823B2, “Anti-cancer composition consisting of halofuginone and sesquiterpene lactone compounds of artemisia apiacea and use thereof” (Hong Kong Baptist University, priority 2016, dated 2021).

Legend:
Settings in all cases: alone or combined, 24 hours
[1] = tested on: colon cancer cell HCT-116; test: MTT assay, colon cancer cell HCT-116; type: cell-based, Human
Procedure: Human colon cancer cell line HCT-116 was seeded on a 96-well plate, with 100 μl of cell suspension in each well. The culture medium was DMEM supplemented with 10% FBS and 2 mM glutamate. […] 24 hours after adding the compound, the cell survival rate was assessed using the MTT assay, and the combination index (CI) of the combined pharmaceutical of HF and ATS was calculated using the Calcusyn software. Tumor cell survival rate=the OD value of the experimental group/the OD value of the control group×100%

breast cancer cell MCF-7 = test: MTT assay, breast cancer cell MCF-7; type: cell-based
Procedure: Breast cancer cell line MCF-7 was seeded on a 96-well plate, with 100 μl of cell suspension in each well. The culture medium was DMEM supplemented with 10% FBS and 2 mM glutamate. […] 24 hours after adding the compound, the cell survival rate was assessed using the MTT assay, and the combination index (CI) of the combined pharmaceutical of HF and ATS was calculated using the Calcusyn software.

liver cancer cell HepG2 = test: MTT assay, liver cancer cell HepG2; type: cell-based
Procedure: Liver cancer cell line HepG2 was seeded on a 96-well plate, with 100 μl of cell suspension in each well. The culture medium was DMEM supplemented with 10% FBS and 2 mM glutamate. […] 24 hours after adding the compound, the cell survival rate was assessed using the MTT assay, and the combination index (CI) of the combined pharmaceutical of HF and ATS was calculated using the Calcusyn software.

[2] = tested on: gastric cancer cell MGC803; test: MTT assay, gastric cancer cell MGC803; type: cell-based
Procedure: Gastric cancer cell line MGC803 was seeded on a 96-well plate, with 100 μl of cell suspension in each well. The culture medium was DMEM supplemented with 10% FBS and 2 mM glutamate. […] 24 hours after adding the compound, the cell survival rate was assessed using the MTT assay, and the combination index (CI) of the combined pharmaceutical of HF and ATS was calculated using the Calcusyn software.

melanoma cell A375 = test: MTT assay, melanoma cell A375; type: cell-based
Procedure: Melanoma cell line A375 was seeded on a 96-well plate, with 100 μl of cell suspension in each well. The culture medium was DMEM supplemented with 10% FBS and 2 mM glutamate. […] 24 hours after adding the compound, the cell survival rate was assessed using the MTT assay, and the combination index (CI) of the combined pharmaceutical of HF and ATS was calculated using the Calcusyn software.

[3] = HF 10 nM, ATS/DAT/ASU/ATM 160 μM
[4] = HF 20 nM, ATS/DAT/ASU/ATM 320 μM
[5] = HF 40 nM, ATS/DAT/ASU/ATM 640 μM

Compound | Cell death rate (%) [1, 3] [%] | Cell death rate (%) [1, 4] [%] | Cell death rate (%) [1, 5] [%] | Cell death rate (%) (breast cancer cell MCF-7; HF 10 nM, lactone 160 μM) | Cell death rate (%) (breast cancer cell MCF-7; HF 20 nM, lactone 320 μM) | Cell death rate (%) (breast cancer cell MCF-7; HF 40 nM, lactone 640 μM) | Cell death rate (%) (liver cancer cell HepG2; HF 10 nM, lactone 160 μM) | Cell death rate (%) (liver cancer cell HepG2; HF 20 nM, lactone 320 μM) | Cell death rate (%) (liver cancer cell HepG2; HF 40 nM, lactone 640 μM) | Cell death rate (%) ([2]; HF 10 nM, lactone 160 μM) | Cell death rate (%) ([2]; HF 20 nM, lactone 320 μM) | Cell death rate (%) ([2]; HF 40 nM, lactone 640 μM) | Cell death rate (%) (melanoma cell A375; HF 10 nM, lactone 160 μM) | Cell death rate (%) (melanoma cell A375; HF 40 nM, lactone 640 μM) | Cell death rate (%) (melanoma cell A375; HF 20 nM, lactone 320 μM)
C[C@H]1[C@H](OC(=O)CCC(=O)O)O[C@@H]2O[C@@]3(C)CC[C@H]4[C@H](C)CC[C@@H]1[C@@]24OO3 [ASU, artesunate] | 35.15 ± 3.45 | 48.31 ± 3.69 | 53.52 ± 2.46 | 9.15 ± 0.92 | 16.31 ± 1.69 | 33.57 ± 2.56 | 0.95 ± 0.72 | 1.86 ± 0.09 | 6.57 ± 2.06 | 1.15 ± 0.92 | 5.31 ± 1.69 | 43.57 ± 2.56 | 16.15 ± 4.90 | 47.59 ± 3.93 | 
CO[C@H]1O[C@@H]2O[C@@]3(C)CC[C@H]4[C@H](C)CC[C@@H]([C@H]1C)[C@@]24OO3 [ATM, artemether] | 33.17 ± 4.46 | 46.32 ± 3.45 | 54.50 ± 2.50 |  |  |  |  |  |  |  |  |  |  |  | 
C[C@@H]1CC[C@H]2[C@@H](C)C(=O)O[C@@H]3O[C@@]4(C)CC[C@@H]1[C@]32OO4 [ATS, Artemisinin] | 35.89 ± 3.91 | 48.31 ± 3.61 | 54.42 ± 2.44 | 9.50 ± 0.77 | 16.50 ± 1.47 | 33.90 ± 2.00 | 0.90 ± 0.95 | 1.60 ± 0.08 | 6.40 ± 2.71 | 1.00 ± 3.31 | 4.60 ± 5.51 | 40.00 ± 3.18 | 16.50 ± 4.30 | 46.50 ± 3.57 | 26.30 ± 1.33
C[C@H]1[C@@H](O)O[C@@H]2O[C@@]3(C)CC[C@H]4[C@H](C)CC[C@@H]1[C@@]24OO3 [DAT, dihydroartemisinin] | 36.80 ± 3.33 | 47.32 ± 3.65 | 55.57 ± 2.43 | 8.81 ± 0.83 | 16.32 ± 1.65 | 32.59 ± 2.43 | 0.81 ± 0.83 | 1.72 ± 0.15 | 6.59 ± 2.58 | 1.81 ± 0.83 | 5.32 ± 1.65 | 42.59 ± 2.43 | 16.81 ± 5.83 | 42.55 ± 4.42 | 26.35 ± 1.64
O=C(CC1NCCCC1O)Cn1cnc2cc(Br)c(Cl)cc2c1=O (centres unmarked) [HF, Halofuginone] | 19.41 ± 4.03 | 33.06 ± 3.32 | 59.27 ± 0.41 | 2.00 ± 1.28 | 3.00 ± 0.55 | 9.10 ± 1.79 | 0.70 ± 3.11 | 1.00 ± 2.06 | 4.00 ± 2.21 | 8.10 ± 2.77 | 20.00 ± 4.18 | 29.00 ± 3.31 | 5.70 ± 5.44 | 35.70 ± 4.76 | 17.70 ± 2.82
